Laboratory results: ChEMBL document CHEMBL4819091, “Identification of novel gankyrin binding scaffolds by high throughput virtual screening” (Bioorg Med Chem Lett, 2021)
Calls of active or inactive are those of the source. The rule behind the calls is not given here.

How the values were obtained:
[1] = molecular target: T1, 26S proteasome non-ATPase regulatory subunit 10 (Homo sapiens) (UniProt O75832); test: Binding affinity to recombinant human His-tagged gankyrin expressed in Escherichia coli assessed as change in melting temperature at 300 uM by SYPRO orange dye based thermal shift assay
T1 sequence (whole entry): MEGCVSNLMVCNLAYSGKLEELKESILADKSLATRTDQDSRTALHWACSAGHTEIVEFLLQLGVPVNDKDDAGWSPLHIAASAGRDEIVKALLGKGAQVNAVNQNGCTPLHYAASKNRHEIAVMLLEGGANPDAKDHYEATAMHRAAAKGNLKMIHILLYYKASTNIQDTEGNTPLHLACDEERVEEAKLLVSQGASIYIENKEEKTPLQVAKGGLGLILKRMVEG

A549 [2] = test: Cytotoxicity against human A549 cells assessed as reduction in cell viability incubated for 72 hrs by MTT assay; type: functional, cell-based; details: A549, 72 h
MDA-MB-231 [3] = test: Cytotoxicity against human MDA-MB-231 cells assessed as reduction in cell viability incubated for 72 hrs by MTT assay; type: functional, cell-based; details: MDA-MB-231, 72 h
HepG2 [4] = test: Cytotoxicity against human HepG2 cells assessed as reduction in cell viability incubated for 72 hrs by MTT assay; type: functional, cell-based; details: HepG2, 72 h
Hep 3B2 [5] = test: Cytotoxicity against human Hep3B cells assessed as reduction in cell viability incubated for 72 hrs by MTT assay; type: functional, cell-based
[6] = Cytotoxicity against human HuH-6 cells assessed as reduction in cell viability incubated for 72 hrs by MTT assay; type: functional, cell-based; details: HuH-6, 72 h
A549 [7] = test: Potency index, ratio of IC50 of Cjoc42 to IC50 of compound for cytotoxicity against human A549 cells assessed as reduction in cell viability incubated for 72 hrs by MTT assay; type: functional
MDA-MB-231 [8] = test: Potency index, ratio of IC50 of Cjoc42 to IC50 of compound for cytotoxicity against human MDA-MB-231 cells assessed as reduction in cell viability incubated for 72 hrs by MTT assay; type: functional
HepG2 [9] = test: Potency index, ratio of IC50 of Cjoc42 to IC50 of compound for cytotoxicity against human HepG2 cells assessed as reduction in cell viability incubated for 72 hrs by MTT assay; type: functional
Hep 3B2 [10] = test: Potency index, ratio of IC50 of Cjoc42 to IC50 of compound for cytotoxicity against human Hep3B cells assessed as reduction in cell viability incubated for 72 hrs by MTT assay; type: functional
[11] = Potency index, ratio of IC50 of Cjoc42 to IC50 of compound for cytotoxicity against human HuH-6 cells assessed as reduction in cell viability incubated for 72 hrs by MTT assay; type: functional
[12] = molecular target: T1, 26S proteasome non-ATPase regulatory subunit 10 (Homo sapiens); test: Inhibition of gankyrin in human HuH-6 cells assessed as increase in p53 level at 25 to 100 uM by immunoblot assay; type: cell-based; details: dose 25-100 µM
[13] = molecular target: T1, 26S proteasome non-ATPase regulatory subunit 10 (Homo sapiens); test: Inhibition of gankyrin in human HuH-6 cells assessed as increase in phopho-Rb level at 25 to 100 uM by immunoblot assay; type: cell-based; details: dose 25-100 µM
[14] = molecular target: T1, 26S proteasome non-ATPase regulatory subunit 10 (Homo sapiens); test: Inhibition of gankyrin in human Hep3B cells assessed as increase in p53 level at 12.5 to 50 uM by immunoblot assay; type: cell-based; details: dose 12.5-50 µM
[15] = molecular target: T1, 26S proteasome non-ATPase regulatory subunit 10 (Homo sapiens); test: Inhibition of gankyrin in human Hep3B cells assessed as increase in CUGBP1 level at 12.5 to 50 uM by immunoblot assay; type: cell-based; details: dose 12.5-50 µM

## COC(=O)c1ccc(-n2cc(CCCOS(=O)(=O)c3ccc(C)cc3)nn2)cc1
[1]
  ΔTm: 0.5 °C
A549 [2]
  IC50: > 100 µM
MDA-MB-231 [3]
  IC50: > 100 µM
HepG2 [4]
  IC50: > 100 µM
Hep 3B2 [5]
  IC50: > 100 µM
[6]
  IC50: 70.7 µM

## O=C(O)CN(Cc1ccc(Cl)cc1)C(=O)c1cnc(N2CCC[C@H]2COc2ccc(Cl)cc2)nc1CCc1ccccc1
[1]
  ΔTm: 7.92 °C
A549 [2]
  IC50: 45.6 µM
MDA-MB-231 [3]
  IC50: 88.1 µM
HepG2 [4]
  IC50: 52.7 µM
Hep 3B2 [5]
  IC50: 25.5 µM
[6]
  IC50: 44.3 µM
A549 [7]
  Ratio IC50: 2.2
MDA-MB-231 [8]
  Ratio IC50: 1.1
HepG2 [9]
  Ratio IC50: 1.9
Hep 3B2 [10]
  Ratio IC50: 3.9
[11]
  Ratio IC50: 1.6

## O=C(O)COc1ccc(CC(=O)O)cc1-c1cc(-c2ccc(Cl)cc2)n(CCc2ccccc2)n1
[1]
  ΔTm: 1.94 °C
A549 [2]
  IC50: > 100 µM
MDA-MB-231 [3]
  IC50: > 100 µM
HepG2 [4]
  IC50: > 100 µM
Hep 3B2 [5]
  IC50: > 100 µM
[6]
  IC50: > 100 µM
[12]
  inhibition: Active
[13]
  inhibition: Active
[14]
  inhibition: Active
[15]
  inhibition: Active

## COc1cccc2c1O[C@@](C)(CCC(=O)O)[C@@H]1CC[C@@H](CCCN)O[C@@H]21
[1]
  ΔTm: 0.17 °C

## CS(=O)(=O)Cc1cccc(C(=O)NS(=O)(=O)c2ccc(S(C)(=O)=O)cc2)c1
[1]
  ΔTm: 0.29 °C
